This data set is described as follows: Chemical stability of metsulfuron-methyl and thifensulfuron-methyl during aging of compositions at 40° C. (HPLC). In kind it is physicochemical. On the procedure:
When prepared, the compositions were analyzed by HPLC for metsulfuron-methyl and thifensulfuron-methyl content. The stability of metsulfuron-methyl and thifensulfuron-methyl in the compositions prepared was then determined by aging samples in ovens at 40° C. for 4 and 8 weeks. Storage at 40° C. at 8 weeks simulates two-year storage at ambient temperature. Control samples were stored in a freezer at −6° C. […] At the end of the allotted times, samples were removed from the ovens and analyzed by HPLC for metsulfuron-methyl or thifensulfuron-methyl content. The relative chemical stability was calculated by dividing the assay of the oven-aged sample by that of the control sample analyzed on the same day.

Consider `COC(=O)c1sccc1S(=O)(=O)NC(=O)Nc1nc(C)nc(OC)n1` [thifensulfuron-methyl, methyl 3-[[[[(4-methoxy-6-methyl-1,3,5-triazin-2-yl)amino]carbonyl]amino]-sulfonyl]-2-thiophenecarboxylate], for which the “stability of the thifensulfuron-methyl component itself” value was “excellent stability”.

Values taken from patent US12016335B2, “Stabilized low-concentration metsulfuron-methyl liquid composition” (FMC CORPORATION, priority 2013, dated 2024).
